Assay results from patent US20100227853A1, “INHIBITORS OF CYCLIC AMP PHOSPHODIESTERASES” (Trustees of Boston College, priority 2008, published 2010).

Assays:
[1] = target: T1, PDE4B3 (Mus musculus, UniProt Q8VBU5); experiment: 5FOA growth assay in fission yeast strain expressing PDE4B3; assay type: cell-based, Murine; settings: for Composite Z score, PDE4B3: high throughput 5FOA growth screen; for 1 Assay (20 uM) 4B3: PDE 4B3
T1 construct: targets used in the assays are full-length proteins (as opposed to simply the catalytic domain); expressed in transfected cells; host or cells: Schizosaccharomyces pombe, PDE gene integrated in place of cgs2
T1 sequence (Q8VBU5 1-721): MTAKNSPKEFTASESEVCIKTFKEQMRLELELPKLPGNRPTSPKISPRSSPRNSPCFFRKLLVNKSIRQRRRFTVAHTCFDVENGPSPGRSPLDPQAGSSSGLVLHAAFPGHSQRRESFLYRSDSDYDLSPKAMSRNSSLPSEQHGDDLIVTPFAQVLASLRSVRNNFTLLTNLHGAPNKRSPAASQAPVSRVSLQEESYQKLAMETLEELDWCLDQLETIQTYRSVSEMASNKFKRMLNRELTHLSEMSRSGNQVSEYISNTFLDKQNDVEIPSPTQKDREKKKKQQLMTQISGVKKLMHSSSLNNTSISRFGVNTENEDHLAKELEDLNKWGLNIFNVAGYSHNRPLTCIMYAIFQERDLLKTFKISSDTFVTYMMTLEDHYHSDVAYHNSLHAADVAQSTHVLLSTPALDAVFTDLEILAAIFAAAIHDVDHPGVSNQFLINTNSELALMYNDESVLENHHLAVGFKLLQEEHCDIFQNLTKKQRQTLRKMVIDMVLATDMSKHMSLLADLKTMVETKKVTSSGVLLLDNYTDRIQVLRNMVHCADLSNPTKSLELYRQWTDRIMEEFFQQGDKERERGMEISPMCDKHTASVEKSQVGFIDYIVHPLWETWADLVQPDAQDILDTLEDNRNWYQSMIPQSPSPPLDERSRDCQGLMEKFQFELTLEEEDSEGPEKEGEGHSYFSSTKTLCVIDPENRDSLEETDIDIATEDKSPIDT
Outline: (§1)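 Fission yeast strains carrying mouse PDE4A1 or PDE4B3 and an fbp1-ura4 reporter were pregrown in EMM with 0.5–2.5 mM cAMP, then seeded at 0.5–4×10^5 cells/ml in 5FOA medium with compound. Growth was read as OD600 after 48 h at 30° C; composite Z scores were derived.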

[2] = target: T2, PDE4A1 (Mus musculus, UniProt O89084); experiment: 5FOA growth assay (high throughput screen, ED50) in fission yeast strain expressing PDE4A1; assay type: cell-based; settings: for Composite Z score, PDE4A1: high throughput 5FOA growth screen, greater than 8.53 = statistically-significant inhibitor; for 1 Assay (20 uM) 4A1: PDE 4A1
T2 construct: targets used in the assays are full-length proteins (as opposed to simply the catalytic domain); expressed in transfected cells; host or cells: Schizosaccharomyces pombe, PDE gene integrated in place of cgs2
T2 sequence (O89084 1-610 isoform O89084-2): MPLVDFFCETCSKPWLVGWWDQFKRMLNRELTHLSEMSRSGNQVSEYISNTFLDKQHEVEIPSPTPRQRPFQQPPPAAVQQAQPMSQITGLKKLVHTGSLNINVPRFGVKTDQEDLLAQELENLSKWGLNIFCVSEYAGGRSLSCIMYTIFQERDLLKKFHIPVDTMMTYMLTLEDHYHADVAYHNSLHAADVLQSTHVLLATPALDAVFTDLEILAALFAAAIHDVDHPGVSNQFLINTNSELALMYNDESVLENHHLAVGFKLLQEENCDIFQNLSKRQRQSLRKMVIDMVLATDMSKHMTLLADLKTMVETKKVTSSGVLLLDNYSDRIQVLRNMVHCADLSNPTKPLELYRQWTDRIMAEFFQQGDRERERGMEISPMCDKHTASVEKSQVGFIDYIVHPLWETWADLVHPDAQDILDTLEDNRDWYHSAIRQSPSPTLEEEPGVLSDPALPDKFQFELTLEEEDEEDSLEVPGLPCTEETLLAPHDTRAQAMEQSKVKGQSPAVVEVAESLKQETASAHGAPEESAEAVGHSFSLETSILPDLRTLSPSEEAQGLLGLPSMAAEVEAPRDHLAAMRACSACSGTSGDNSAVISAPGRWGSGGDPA
Outline: as §1

[3] = test system: PDE4A, PDE4B, PDE4D, PDE7A, PDE7B, PDE8A, PDE3A; experiment: Summary of PDE inhibitor profile; parameters: key to PDE inhibitor profile (Table 17): (1): Strong PDE4A, PDE4B inhibitor; (2): Strong PDE4A inhibitor; (3): Strong PDE4B, moderate PDE4A inhibitor; (4): Moderate PDE4A, PDE4B inhibitor; (5): Moderate PDE4B inhibitor; settings: overall classification, Table 17 footnotes

CCN(CC)c1ncnc2sc(C(=O)N(C)C3CCCCC3)c(C)c12 [Compound 2040J12]
Composite Z score, PDE4B3 [1]: 5.3667
Composite Z score, PDE4A1 [2]: 7.0857

c1ccc(CCn2c3ccccc3c3nc4ccccc4nc32)cc1 [2019, G03]
1 Assay (20 uM) 4B3 [1]: 83.22 ND ND ND ND
1 Assay (20 uM) 4A1 [2]: 36.37 ND ND ND ND
PDE inhibitor profile (Table 17) [3]: 2019, G03 (4)

CC(C)Cn1c2ccc(Br)cc2c2nc3ccccc3nc21 [2015, L04]
1 Assay (20 uM) 4B3 [1]: 1.17 ND ND ND ND
1 Assay (20 uM) 4A1 [2]: 13.51 ND ND ND ND
PDE inhibitor profile (Table 17) [3]: 2015, L04 (1)

c1nc(NCCCN2CCOCC2)c2c3c(sc2n1)CCCC3 [Compound 2051N22]
Composite Z score, PDE4B3 [1]: −0.998
Composite Z score, PDE4A1 [2]: 1.1862

CCN(CC)c1nc(C)nc2sc(C(=O)N3CCCCCC3)c(C)c12 [Compound 2040N12]
Composite Z score, PDE4B3 [1]: 12.239
Composite Z score, PDE4A1 [2]: 7.3705

Cc1cc(C)c(C)c(S(=O)(=O)N2CCN(c3ncnc4sc5c(c34)CCCC5)CC2)c1C [Compound 2012L13]
Composite Z score, PDE4B3 [1]: −0.543
Composite Z score, PDE4A1 [2]: 1.67

CCN(CC)c1nc(C)nc2sc(C(=O)Nc3cc(Cl)ccc3OC)c(C)c12 [Compound 2040L12]
Composite Z score, PDE4B3 [1]: 3.2214
Composite Z score, PDE4A1 [2]: 8.6742

c1csc(CCNc2ncnc3sc4c(c23)CCC4)c1 [Compound 2005M12]
Composite Z score, PDE4B3 [1]: 0.0838
Composite Z score, PDE4A1 [2]: −1.628

O=C(/C=C/c1ccccc1)Nc1ncnc2sc3c(c12)CCC3 [Compound 2008K11]
Composite Z score, PDE4B3 [1]: 0.0615
Composite Z score, PDE4A1 [2]: −1.395

CCNc1nc(SCC(=O)NC(=O)NCc2ccccc2)nc2sc3c(c12)CCN(C)C3 [Compound 2054N05]
Composite Z score, PDE4B3 [1]: 0.0285
Composite Z score, PDE4A1 [2]: −0.307

CC1CC(=O)N(c2ncnc3sc4c(c23)CCCC4)N1 (stereo not drawn) [2054 E16]
Composite Z score, PDE4B3 [1]: 0.62
Composite Z score, PDE4A1 [2]: 0.2389

COc1ccc(CCNc2ncnc3sc4c(c23)CCCC4)cc1 [Compound 2012B19]
Composite Z score, PDE4B3 [1]: 43.053
Composite Z score, PDE4A1 [2]: 32.257

CCOC(=O)c1sc2nc(Cc3ccccc3)nc(NCCC3CCCCC3)c2c1C [Compound 2040F07]
Composite Z score, PDE4B3 [1]: 5.0875
Composite Z score, PDE4A1 [2]: 3.8961

CCC(C)NC(=O)c1sc2nc(C)nc(N(C)c3ccc(C(C)C)cc3)c2c1C (stereo not drawn) [Compound 2041K04]
Composite Z score, PDE4B3 [1]: −0.456
Composite Z score, PDE4A1 [2]: 11.659

Cc1c(C(=O)N(C)Cc2ccccc2)sc2ncnc(N3CCN(c4ccccc4)CC3)c12 [Compound 2041G21]
Composite Z score, PDE4B3 [1]: 33.162
Composite Z score, PDE4A1 [2]: −0.629

O=C(O)CCNc1ncnc2sc3c(c12)CCCC3 [Compound 2012O16]
Composite Z score, PDE4B3 [1]: −0.716
Composite Z score, PDE4A1 [2]: 2.8

CNc1nc(=S)[nH]c2sc3c(c12)CCCC3 [2054 E08]
Composite Z score, PDE4B3 [1]: 0.2798
Composite Z score, PDE4A1 [2]: −1.088

COc1cc(OC)c(NC(=O)c2sc3ncnc(N4CCCCC4C)c3c2C)cc1Cl (stereo not drawn) [Compound 2040J10]
Composite Z score, PDE4B3 [1]: 1.7278
Composite Z score, PDE4A1 [2]: 3.0133

COc1cccc(NC(=O)c2sc3ncnc(N4CCc5ccccc5C4)c3c2C)c1 [Compound 2041K21]
Composite Z score, PDE4B3 [1]: 4.5126
Composite Z score, PDE4A1 [2]: 19.619

Cc1nc(N2CCC(C)CC2)c2c(C)c(C(=O)N3CCN(c4ccc(F)cc4)CC3)sc2n1 [Compound 2040N10]
Composite Z score, PDE4B3 [1]: 3.1975
Composite Z score, PDE4A1 [2]: 12.024
